Measurements taken from ChEMBL document CHEMBL4265931, “Identification of dual Sigma1 receptor modulators/acetylcholinesterase inhibitors with antioxidant and neurotrophic properties, as neuroprotective agents” (Eur J Med Chem, 2018).
Calls of active or inactive are those of the source. No cut-off for these calls is given here.

How the values were obtained:
[1] = target: Sigma non-opioid intracellular receptor 1 (Cavia porcellus, UniProt Q60492); test: Displacement of [3H](+)-pentazocine from S1R in guinea pig brain cortex membranes after 120 mins by scintillation counting assay; type: cell membranes
[2] = target: T1, Sigma intracellular receptor 2 (Rattus norvegicus, UniProt Q5U3Y7); test: Displacement of [3H]-DTG from S2R in rat liver membranes after 120 mins by scintillation counting assay; type: cell membranes, Membrane
T1 sequence (Q5U3Y7 whole entry): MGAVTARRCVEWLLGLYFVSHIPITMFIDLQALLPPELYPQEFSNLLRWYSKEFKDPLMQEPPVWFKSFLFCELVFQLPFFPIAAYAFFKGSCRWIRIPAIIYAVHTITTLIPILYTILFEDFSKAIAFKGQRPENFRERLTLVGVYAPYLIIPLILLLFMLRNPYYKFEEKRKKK

[3] = Selectivity ratio of Ki for S2R in rat liver membranes to Ki for S1R in guinea pig brain cortex membranes; type: cell membranes
[4] = target: Acetylcholinesterase (Electrophorus electricus, UniProt O42275); test: Inhibition of electric eel AChE using acetylthiocholine iodide as substrate preincubated for 5 mins followed by substrate addition and measured after 2 mins by Ellman's method
[5] = Displacement of [3H]-ifenprodil from GluN1a/GluN2B (unknown origin) expressed in mouse L(tk-) cell membranes after 120 mins by scintillation counting analysis; set-up: species or system Homo sapiens
[6] = Antioxidant activity assessed as DPPH free radical scavenging at 465 uM after 20 mins by UV-Vis spectrophotometric analysis relative to control; type: functional
[7] = system: SH-SY5Y; test: Cytotoxicity against human SH-SY5Y cells assessed as reduction in cell viability after 24 hrs by MTS assay; type: cell-based; details: human, sh-sy5y
[8] = system: SH-SY5Y; test: Cytotoxicity against human SH-SY5Y cells assessed as reduction in cell viability after 48 hrs by MTS assay; type: cell-based; details: human, sh-sy5y
[9] = in vitro; details: human, SH-SY5Y cells
Description: Cytotoxicity against human SH-SY5Y cells assessed as cell viability at 10 uM after 24 hrs by MTS assay relative to control

[10] = in vitro; details: human, SH-SY5Y cells; remark: listed apart in the source
[11] = in vitro; details: human, SH-SY5Y cells; remark: listed apart in the source
Description: Cytotoxicity against human SH-SY5Y cells assessed as cell viability at 50 uM after 24 hrs by MTS assay relative to control

[12] = in vitro; details: human, SH-SY5Y cells; remark: listed apart in the source
Description: Cytotoxicity against human SH-SY5Y cells assessed as cell viability at 10 uM after 48 hrs by MTS assay relative to control

[13] = in vitro; details: human, SH-SY5Y cells; remark: listed apart in the source
[14] = in vitro; details: human, SH-SY5Y cells; remark: listed apart in the source
Description: Cytotoxicity against human SH-SY5Y cells assessed as cell viability at 50 uM after 48 hrs by MTS assay relative to control

[15] = system: SH-SY5Y; test: Neuroprotection against H2O2-induced oxidative stress in human SH-SY5Y cells assessed as reduction in ROS generation at 10 uM preincubated for 3 hrs followed by DCFDA addition for 45 mins and subsequent co-treatment with compound and H2O2 for 24 hrs by fluorescence assay relative to control; type: functional

Sequence of Acetylcholinesterase (O42275 whole entry): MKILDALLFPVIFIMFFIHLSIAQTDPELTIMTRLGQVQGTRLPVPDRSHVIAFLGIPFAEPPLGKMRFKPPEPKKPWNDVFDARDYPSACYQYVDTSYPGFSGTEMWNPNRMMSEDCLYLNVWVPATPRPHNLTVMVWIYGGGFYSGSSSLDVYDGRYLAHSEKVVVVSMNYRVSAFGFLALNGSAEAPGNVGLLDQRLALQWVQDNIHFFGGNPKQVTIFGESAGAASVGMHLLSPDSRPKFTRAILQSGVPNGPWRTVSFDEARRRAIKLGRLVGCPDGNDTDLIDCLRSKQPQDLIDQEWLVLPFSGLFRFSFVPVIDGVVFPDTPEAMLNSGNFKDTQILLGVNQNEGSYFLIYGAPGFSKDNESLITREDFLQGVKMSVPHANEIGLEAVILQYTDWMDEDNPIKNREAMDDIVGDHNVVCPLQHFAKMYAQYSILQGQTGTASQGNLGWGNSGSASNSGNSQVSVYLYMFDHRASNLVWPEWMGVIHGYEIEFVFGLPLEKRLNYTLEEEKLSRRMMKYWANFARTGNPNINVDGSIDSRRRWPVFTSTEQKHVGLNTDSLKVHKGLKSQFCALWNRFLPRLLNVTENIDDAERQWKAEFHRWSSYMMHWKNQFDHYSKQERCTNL
Sequence of Sigma non-opioid intracellular receptor 1 (Q60492 whole entry): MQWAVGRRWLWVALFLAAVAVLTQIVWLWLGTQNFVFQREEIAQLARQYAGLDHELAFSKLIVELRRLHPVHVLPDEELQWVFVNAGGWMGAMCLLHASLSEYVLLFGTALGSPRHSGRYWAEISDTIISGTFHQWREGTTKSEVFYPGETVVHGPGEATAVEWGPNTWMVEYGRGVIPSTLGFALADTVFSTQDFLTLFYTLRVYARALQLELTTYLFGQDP

Compound	Ki [1]	Ki [2]	Ratio Ki [3]	IC50 [4]	Ki [5]	Activity [6]	Activity [7]	Activity [8]	viability at 24 h, 10 µM [9]	viability at 24 h, 25 µM [10]	viability at 24 h, 50 µM [11]	viability at 48 h, 10 µM [12]	viability at 48 h, 25 µM [13]	viability at 48 h, 50 µM [14]	Activity [15]
COc1ccc2cc(C(=O)CCCN3CCC(Cc4ccccc4)CC3)ccc2c1	68 nM	107 nM	1.6	4280 nM	20 nM	–	–	–	–	–	–	–	–	–	–
COc1ccc2cc(C(=O)CN3CCC(Cc4ccccc4)CC3)ccc2c1	286 nM	1400 nM	4.9	–	> 1000 nM	–	–	–	–	–	–	–	–	–	–
COc1ccc(C(=O)CCN2CCCCC2)cc1.Cl	7.9 nM	2100 nM	256	–	1700 nM	14.4%	Dose-dependent effect	Dose-dependent effect	119%	86%	63%	104%	49.4%	43.4%	–
Cl.O=C(CCN1CCCCC1)c1ccc2ccccc2c1	–	178 nM	81	–	> 1000 nM	18.3%	Dose-dependent effect	Dose-dependent effect	98.6%	66.4%	65.4%	70.3%	42%	40%	–
O=C(CCN1CCOCC1)c1ccccc1	606 nM	> 1000 nM	–	–	> 1000 nM	–	–	–	–	–	–	–	–	–	–
COc1cccc(C(=O)CCCN2CCC(Cc3ccccc3)CC2)c1.Cl	17 nM	43 nM	2.5	7640 nM	49 nM	32%	Dose-dependent effect	Dose-dependent effect	100%	100%	98%	94.8%	85.6%	65%	–
O=C(CCN1CCC(Cc2ccccc2)CC1)c1ccc(-c2ccccc2)cc1	167 nM	3900 nM	23.4	–	> 1000 nM	–	–	–	–	–	–	–	–	–	–
COc1ccc(C(=O)CCN2CCOCC2)cc1	301 nM	> 1000 nM	–	–	> 1000 nM	–	–	–	–	–	–	–	–	–	–
Cl.O=C(CCN1CCOCC1)c1ccc2ccccc2c1	–	> 1000 nM	–	–	> 1000 nM	8.14%	Dose-dependent effect	Dose-dependent effect	77%	48%	49%	79%	38%	37%	–
Cl.O=C(CCCN1CCC(Cc2ccccc2)CC1)c1ccccc1	9 nM	47 nM	5.2	13100 nM	39 nM	29.3%	Dose-dependent effect	Dose-dependent effect	100%	100%	87%	96%	95%	54%	–
O=C(CN1CCC(Cc2ccccc2)CC1)c1ccccc1	75 nM	2300 nM	30.7	–	215 nM	–	–	–	–	–	–	–	–	–	–
CC(C(O)c1ccc(O)cc1)N1CCC(Cc2ccccc2)CC1 (stereo not given) [IFENPRODIL]	–	–	–	–	10 nM	–	–	–	–	–	–	–	–	–	–
O=C(CN1CCC(Cc2ccccc2)CC1)c1ccc(-c2ccccc2)cc1	–	> 1000 nM	–	–	> 1000 nM	–	–	–	–	–	–	–	–	–	–
Cl.O=C(CCN1CCOCC1)c1ccc(-c2ccccc2)cc1	–	> 1000 nM	–	–	723 nM	22.1%	Dose-dependent effect	Dose-dependent effect	100%	73%	83.3%	100%	66%	62.4%	–
Cl.O=C(CCN1CCC(Cc2ccccc2)CC1)c1ccccc1	16 nM	5800 nM	363	–	39 nM	25.9%	Dose-dependent effect	Dose-dependent effect	93%	48%	49%	106%	44%	36%	–
COc1cccc(C(=O)CN2CCC(Cc3ccccc3)CC2)c1	131 nM	1500 nM	11.5	32800 nM	11 nM	–	–	–	–	–	–	–	–	–	–
Cl.O=C(CCCN1CCC(Cc2ccccc2)CC1)c1ccc2ccccc2c1	24 nM	58 nM	2.4	–	26 nM	31.6%	Dose-dependent effect	Dose-dependent effect	80.2%	86%	86%	77%	57%	61%	–
COc1ccc(C(=O)CCCN2CCC(Cc3ccccc3)CC2)cc1.Cl	31 nM	111 nM	6.8	12800 nM	96 nM	12.9%	Dose-dependent effect	Dose-dependent effect	100%	100%	84.4%	97.3%	87%	61%	–
O=C(CCCN1CCC(Cc2ccccc2)CC1)c1ccc(-c2ccccc2)cc1	135 nM	704 nM	5.2	13900 nM	96 nM	–	–	–	–	–	–	–	–	–	–
O=C(CCN1CCC(Cc2ccccc2)CC1)c1ccc2ccccc2c1	211 nM	6200 nM	29.4	18600 nM	> 1000 nM	–	–	–	–	–	–	–	–	–	–
C[C@H](CCN1CCCCC1)c1ccc(-c2ccccc2)cc1	–	45 nM	25	–	> 1000 nM	–	–	–	100%	100%	86%	84%	77.1%	57.3%	inactive
O=C(CCN1CCCCC1)c1ccccc1	171 nM	749 nM	4.4	–	> 1000 nM	–	–	–	–	–	–	–	–	–	–
